From patent US8153795B2, “Substituted 1-oxa-3,8-diazaspiro[4.5]-decan-2-one-compounds and the use thereof for producing drugs” (Gruenenthal GmbH, priority 2005, dated 2012) come the findings set out here.

One assay deals with T1, 5-HT transporter (Rattus norvegicus, UniProt P31652).
T1 construct: from tissue; host or cells: rat brain synaptosomes (P2 fraction) from medulla and pons
The assay can be described thus: 5-HT uptake inhibition in rat brain synaptosomes (medulla and pons), [3H]-5-HT. It is filed as biochemical. In outline:
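Freshly isolated P2 synaptosomes taken from rat hypothalamus (NA) or medulla/pons (5-HT) were incubated at room temperature under O2 with [3H]-NA for 7.5 min or [3H]-5-HT for 5 min. Uptake was measured as filter-retained radioactivity by scintillation counting.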

In a further assay the target is T2, NA transporter (Rattus norvegicus, UniProt Q63380).
T2 construct: from tissue; host or cells: rat brain synaptosomes (P2 fraction) from hypothalamus
T2 sequence (Q63380 1-617): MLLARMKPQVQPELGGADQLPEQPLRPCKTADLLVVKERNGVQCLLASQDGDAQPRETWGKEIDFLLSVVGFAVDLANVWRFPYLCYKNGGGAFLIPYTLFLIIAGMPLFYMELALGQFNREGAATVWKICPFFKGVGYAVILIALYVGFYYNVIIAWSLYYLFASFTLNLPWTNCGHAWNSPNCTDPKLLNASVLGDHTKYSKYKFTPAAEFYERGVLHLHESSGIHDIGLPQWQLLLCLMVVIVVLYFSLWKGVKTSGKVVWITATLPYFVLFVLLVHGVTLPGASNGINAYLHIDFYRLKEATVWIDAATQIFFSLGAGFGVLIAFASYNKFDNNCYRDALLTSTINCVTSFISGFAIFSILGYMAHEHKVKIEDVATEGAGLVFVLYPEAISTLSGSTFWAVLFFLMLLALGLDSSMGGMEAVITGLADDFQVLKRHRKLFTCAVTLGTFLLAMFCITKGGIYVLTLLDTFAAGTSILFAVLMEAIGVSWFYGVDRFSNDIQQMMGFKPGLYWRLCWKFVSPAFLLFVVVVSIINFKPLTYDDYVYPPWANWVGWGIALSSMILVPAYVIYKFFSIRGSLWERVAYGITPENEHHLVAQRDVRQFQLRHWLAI
The assay can be described thus: noradrenalin uptake inhibition in rat brain synaptosomes (hypothalamus), [3H]-NA. It is filed as biochemical. From the text: a) Method for Determining Noradrenalin and 5-HT Uptake Inhibition:
Synaptosomes from rat brain regions are freshly isolated for in vitro studies, as described in the publication “The isolation of nerve endings from brain” by E. G. Gray and V. P. Whittaker, J. Anatomy 96, pages 79-88, 1962. The corresponding literature description is hereby introduced as a reference and is deemed to be part of the disclosure.
The tissue (hypothalamus for the determination of noradrenalin uptake inhibition and medulla and pons for the determination of 5-HT uptake inhibition) is homogenised in ice-cooled 0.32 M sucrose (100 mg of tissue/1 mL) in a glass homogeniser with Teflon pestle using five complete up and down strokes at 840 revolutions/minute.
The homogenate is centrifuged at 4° C. for 10 minutes at 1000 g. After subsequent centrifugation at 17000 g for 55 minutes, the synaptosomes (P2 fraction) are obtained, which are resuspended in 0.32 M […] (0.5 mL/100 mg of original weight).
The particular uptake is measured in a 96-well microtitre plate. The volume is 250 μl and the incubation proceeds at room temperature (approx. 20-25° C.) under an O2 atmosphere.
The incubation time is 7.5 minutes for [^3H]-NA and 5 minutes for [^3H]-5-HT. The 96 samples are then filtered through a Unifilter GF/B® microtitre plate (Packard) and washed with 200 mL of incubated buffer using a “Brabdel MPXRI-96T Cell-Harvester”. The Unifilter GF/B plate is dried for 1 hour at 55° C. The plate is then sealed with a Back Seal® (Packard) and 35 μl of scintillation fluid are added per well (Ultima Gold®, Packard). After sealing with a top Seal® (Packard) and establishing an equilibrium (around 5 hours), radioactivity is determined in a “Trilux 1450 Microbeta” (Wallac).
The quantity of protein used in the above determination corresponds to the values known from the literature, as for example described in “Protein measurement with the folin phenol reagent”, Lowry et al., J. Biol. Chem., 193, 265-275, 1951.
A detailed description of the method may additionally be found in the literature, for example in M. Ch. Frink, H.-H. Hennies, W. Engelberger, M. Haurand and B. Wilffert (1996) Arzneim.-Forsch./Drug Res. 46 (III), 11, 1029-1036.

T1 sequence (P31652 whole entry): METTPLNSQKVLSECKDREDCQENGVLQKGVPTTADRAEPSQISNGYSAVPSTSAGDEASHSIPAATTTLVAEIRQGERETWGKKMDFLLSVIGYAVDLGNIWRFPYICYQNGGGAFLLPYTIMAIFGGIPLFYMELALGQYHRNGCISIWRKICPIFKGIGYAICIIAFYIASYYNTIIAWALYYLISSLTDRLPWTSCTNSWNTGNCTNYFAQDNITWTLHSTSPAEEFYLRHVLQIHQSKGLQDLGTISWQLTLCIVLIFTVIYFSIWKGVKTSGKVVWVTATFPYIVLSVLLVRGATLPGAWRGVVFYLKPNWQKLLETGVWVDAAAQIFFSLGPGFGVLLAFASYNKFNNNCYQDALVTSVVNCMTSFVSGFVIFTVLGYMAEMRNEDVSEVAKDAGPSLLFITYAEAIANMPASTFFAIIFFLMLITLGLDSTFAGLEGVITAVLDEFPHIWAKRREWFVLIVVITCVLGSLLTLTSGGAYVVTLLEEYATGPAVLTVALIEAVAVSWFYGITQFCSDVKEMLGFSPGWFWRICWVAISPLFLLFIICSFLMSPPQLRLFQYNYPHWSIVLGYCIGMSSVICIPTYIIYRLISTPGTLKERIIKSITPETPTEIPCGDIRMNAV

`O=C1OC2(CCN(C(=S)Nc3cc(Cl)ccc3Cl)CC2)CN1Cc1cccc(Br)c1` [Example 2, 3-(3-bromobenzyl)-2-oxo-1-oxa-3,8-diazaspiro[4.5]decane-8-carbothioic acid (2,5-dichlorophenyl)amide]: the inhibition at 10 µM is 60% on 5-HT transporter and 64% against NA transporter. `COCCNC(=S)N1CCC2(CC1)CN(Cc1cccc(Br)c1)C(=O)O2` [Example 5, 3-(3-bromobenzyl)-2-oxo-1-oxa-3,8-diazaspiro[4.5]decane-8-carbothioic acid (2-methoxyethyl)amide]: the inhibition at 10 µM on NA transporter is 70%.

`COc1ccccc1NC(=S)N1CCC2(CC1)CN(Cc1cccc(Br)c1)C(=O)O2` [Example 6, 3-(3-bromobenzyl)-2-oxo-1-oxa-3,8-diazaspiro[4.5]decane-8-carbothioic acid (2-methoxyphenyl)amide]: the values for the inhibition at 10 µM against 5-HT transporter and against NA transporter were 63% and 56%, respectively. The corresponding values for `CC(=O)c1cccc(NC(=S)N2CCC3(CC2)CN(Cc2cc(C)cc(C)c2)C(=O)O3)c1` [Example 7, 3-(3,5-dimethylbenzyl)-2-oxo-1-oxa-3,8-diazaspiro[4.5]decane-8-carbothioic acid (3-acetylphenyl)amide] are 55% and 50%.

In the case of `Cc1ccccc1NC(=S)N1CCC2(CC1)CN(Cc1ccccc1)C(=O)O2` [Example 8, 3-benzyl-2-oxo-1-oxa-3,8-diazaspiro[4.5]decane-8-carbothioic acid o-tolylamide], the inhibition at 10 µM on 5-HT transporter stood at 62%; against NA transporter, 50%. Consider `CCOC(=O)CC(C)NC(=S)N1CCC2(CC1)CN(Cc1cccc(Br)c1)C(=O)O2` (centres unmarked) [Example 9, 3-{[3-(3-bromobenzyl)-2-oxo-1-oxa-3,8-diazaspiro[4.5]decane-8-carbothioyl]amino}butanoic acid ethyl ester], for which testing at 10 µM against NA transporter gave an inhibition of 81%. In the case of `C=CCNC(=S)N1CCC2(CC1)CN(Cc1ccc3ccccc3c1)C(=O)O2` [Example 10, 3-naphthalen-2-ylmethyl-2-oxo-1-oxa-3,8-diazaspiro[4.5]decane-8-carbothioic acid allylamide], the inhibition at 10 µM against 5-HT transporter was 50%; against NA transporter it was 78%. Regarding `CCOc1ccc(NC(=S)N2CCC3(CC2)CN(Cc2ccc(F)c(F)c2)C(=O)O3)cc1` [Example 13, 3-(3,4-difluorobenzyl)-2-oxo-1-oxa-3,8-diazaspiro[4.5]decane-8-carbothioic acid (4-ethoxyphenyl)amide], the inhibition at 10 µM against 5-HT transporter was 44%; on NA transporter, 53%. For `N#Cc1cccc(CN2CC3(CCN(C(=S)Nc4cc(Cl)cc(Cl)c4)CC3)OC2=O)c1` [Example 14, 3-(3-cyanobenzyl)-2-oxo-1-oxa-3,8-diazaspiro[4.5]decane-8-carbothioic acid (3,5-dichlorophenyl)amide] the same measures were 57% and 49%. `N#Cc1cccc(CN2CC3(CCN(C(=S)Nc4cccc(C(F)(F)F)c4)CC3)OC2=O)c1` [Example 15, 3-(3-cyanobenzyl)-2-oxo-1-oxa-3,8-diazaspiro[4.5]decane-8-carbothioic acid (3-trifluoromethylphenyl)amide]: the inhibition at 10 µM was 57% against 5-HT transporter and 55% on NA transporter. With `COc1ccc([N+](=O)[O-])cc1CN1CC2(CCN(C(=S)NCC3CCCO3)CC2)OC1=O` (centres unmarked) [Example 17, 3-(2-methoxy-5-nitrobenzyl)-2-oxo-1-oxa-3,8-diazaspiro[4.5]decane-8-carbothioic acid (tetrahydrofuran-2-ylmethyl)amide], the results for the inhibition at 10 µM on 5-HT transporter and against NA transporter were 50% and 45%, respectively.

The compound `O=C1OC2(CCN(C(=S)Nc3ccccc3)CC2)CN1Cc1ccccc1-c1ccccc1` [Example 18, 3-biphenyl-2-ylmethyl-2-oxo-1-oxa-3,8-diazaspiro[4.5]decan-8-carbothioic acid phenylamide] had an inhibition at 10 µM on NA transporter of 55%. Consider `N#Cc1cccc(CN2CC3(CCN(C(=S)NCC4CCCCC4)CC3)OC2=O)c1` [Example 19, 3-(3-cyanobenzyl)-2-oxo-1-oxa-3,8-diazaspiro[4.5]decane-8-carbothioic acid cyclohexylmethylamide], for which the inhibition at 10 µM at 5-HT transporter was determined as 69%; on NA transporter, 48%.

In the case of `CC(=O)c1cccc(NC(=S)N2CCC3(CC2)CN(Cc2ccccc2F)C(=O)O3)c1` [Example 20, 3-(2-fluorobenzyl)-2-oxo-1-oxa-3,8-diazaspiro[4.5]decane-8-carbothioic acid (3-acetylphenyl)amide], the inhibition at 10 µM on NA transporter was determined as 48%.

Regarding `CCOc1ccc(NC(=O)N2CCC3(CC2)CN(Cc2ccccc2F)C(=O)O3)cc1` [Example 24, 3-(2-fluorobenzyl)-2-oxo-1-oxa-3,8-diazaspiro[4.5]decane-8-carboxylic acid (4-ethoxyphenyl)amide], on NA transporter, the inhibition at 10 µM is 58%. Turning to `Cc1ccc(CN2CC3(CCN(C(=O)Nc4ccc(C)c([N+](=O)[O-])c4)CC3)OC2=O)cc1` [Example 27, 3-(4-methylbenzyl)-2-oxo-1-oxa-3,8-diazaspiro[4.5]decane-8-carboxylic acid (4-methyl-3-nitrophenyl)amide], the inhibition at 10 µM on 5-HT transporter stood at 62%; at NA transporter it was 68%. For `O=C(NCc1ccc(F)cc1)N1CCC2(CC1)CN(Cc1ccc(F)c(F)c1)C(=O)O2` [Example 28, 3-(3,4-difluorobenzyl)-2-oxo-1-oxa-3,8-diazaspiro[4.5]decane-8-carboxylic acid 4-fluorobenzylamide] the same measures were 45% and 53%. The corresponding values for `O=C(Nc1cc(F)ccc1F)N1CCC2(CC1)CN(Cc1cccc(Br)c1)C(=O)O2` [Example 29, 3-(3-bromobenzyl)-2-oxo-1-oxa-3,8-diazaspiro[4.5]decane-8-carboxylic acid (2,5-difluorophenyl)amide] are 84% and 82%.

Take `N#Cc1cccc(NC(=O)N2CCC3(CC2)CN(Cc2ccccc2)C(=O)O3)c1` [Example 33, 3-benzyl-2-oxo-1-oxa-3,8-diazaspiro[4.5]decane-8-carboxylic acid (3-cyanophenyl)amide]: the inhibition at 10 µM against 5-HT transporter worked out at 59%; against NA transporter, 93%.

The compound `Cc1ccc(NC(=O)N2CCC3(CC2)CN(Cc2ccc(F)c(F)c2)C(=O)O3)cc1[N+](=O)[O-]` [Example 34, 3-(3,4-difluorobenzyl)-2-oxo-1-oxa-3,8-diazaspiro[4.5]decane-8-carboxylic acid (4-methyl-3-nitrophenyl)amide] displayed an inhibition at 10 µM against NA transporter of 41%. On to `COc1cccc(NC(=O)N2CCC3(CC2)CN(Cc2ccc(F)c(F)c2)C(=O)O3)c1` [Example 35, 3-(3,4-difluorobenzyl)-2-oxo-1-oxa-3,8-diazaspiro[4.5]decane-8-carboxylic acid (3-methoxyphenyl)amide], for which the inhibition at 10 µM worked out at 56% against 5-HT transporter and 63% on NA transporter.

The compound `O=C(Nc1ccc(Cl)c(C(F)(F)F)c1)N1CCC2(CC1)CN(Cc1ccccc1)C(=O)O2` [Example 37, 3-benzyl-2-oxo-1-oxa-3,8-diazaspiro[4.5]decane-8-carboxylic acid (4-chloro-3-trifluoromethylphenyl)amide] yielded an inhibition at 10 µM on NA transporter of 47%. Same read-out and setting: then `O=C(NCCc1ccccc1)N1CCC2(CC1)CN(Cc1ccccc1C(F)(F)F)C(=O)O2` [Example 49, 2-oxo-3-(2-trifluoromethylbenzyl)-1-oxa-3,8-diazaspiro[4.5]decane-8-carboxylic acid phenethylamide], with 48%; and `O=C(Nc1cccc(F)c1)N1CCC2(CC1)CN(Cc1ccccc1)C(=O)O2` [Example 60, 3-benzyl-2-oxo-1-oxa-3,8-diazaspiro[4.5]decane-8-carboxylic acid (3-fluorophenyl)amide], with 58%; and `Cc1ccc(CN2CC3(CCN(CC(=O)Nc4ccc(S(=O)(=O)Nc5cc(Cl)cc(Cl)c5)cc4)CC3)OC2=O)cc1` [Example 75, N-[4-(3,5-dichlorophenylsulfamoyl)phenyl]-2-[3-(4-methylbenzyl)-2-oxo-1-oxa-3,8-diazaspiro[4.5]dec-8-yl]acetamide], with 67%. With `N#Cc1ccccc1CN1CC2(CCN(C(=O)c3ccc([N+](=O)[O-])cc3Cl)CC2)OC1=O` [Example 151, 2-[8-(2-chloro-4-nitrobenzoyl)-2-oxo-1-oxa-3,8-diazaspiro[4.5]dec-3-ylmethyl]benzonitrile], at 5-HT transporter, the inhibition at 10 µM turned out to be 71%.

A word on the inhibition: it is the relative decrease from the control value, in per cent. Read a high inhibition as a response far below the control.
